biological target: recombinant CaMKIIδ (Homo sapiens (Human), UniProt Q13557); assay: CaMKIIδ biochemical assay (HTRF); settings: 10 pM CaMKIIδ, 110 nM calmodulin, 12 μM ATP, 1 hour; read-out: CAMKIID-HTRF-384V2 (IC50 - nM)
Method: CaMKIIδ Biochemical Assay
The biochemical activity of recombinant CaMKIIδ was measured by monitoring the phosphorylation of a target peptide using Homogenous Time Resolved Fluorescence (HTRF) technology from CisBio Bioassays.

| Structure (SMILES) | IC50 [nM] |
| --- | --- |
| CCN(CC)[C@@H](C)CNC(=O)c1cc(-c2cnn3ccc(-c4cccs4)nc23)nc(N2CC(C(N)=O)C2)c1 [Example 208, (S)-2-(3-carbamoylazetidin-1-yl)-N-(2-(diethylamino)propyl)-6-(5-(thiophen-2-yl)pyrazolo[1,5-a]pyrimidin-3-yl)isonicotinamide] | 0.07 |
| N[C@H]1CC[C@H]2CCCN(C(=O)c3ccnc(-c4cnn5ccc(-c6ccccc6)nc45)c3)[C@H]21 [Example 94, ((4aR,7S,7aR)-7-aminooctahydro-1H-cyclopenta[b]pyridin-1-yl)(2-(5-phenylpyrazolo[1,5-a]pyrimidin-3-yl)pyridin-4-yl)methanone] | 7 |
| CCN(CC)[C@@H](C)CNC(=O)c1cc(NCCS(N)(=O)=O)nc(-c2cnn3ccc(-c4cccs4)nc23)c1 [Example 242, (S)—N-(2-(diethylamino)propyl)-2-((2-sulfamoylethyl)amino)-6-(5-(thiophen-2-yl)pyrazolo[1,5-a]pyrimidin-3-yl)isonicotinamide] | 0.07 |
| O=C(c1ccnc(-c2cnn3ccc(-c4ccccc4)nc23)c1)N1CCC2CCNCC21 (stereo not shown) [Example 95, (octahydro-1H-pyrrolo[2,3-c]pyridin-1-yl)(2-(5-phenylpyrazolo[1,5-a]pyrimidin-3-yl)pyridin-4-yl)methanone] | 390 |
| CCN(CC)[C@@H](C)CNC(=O)c1cc(-c2cnn3ccc(-c4cccs4)nc23)nc(N2CCC2)c1 [Example 146, (S)-2-(azetidin-1-yl)-N-(2-(diethylamino)propyl)-6-(5-(thiophen-2-yl)pyrazolo[1,5-a]pyrimidin-3-yl)isonicotinamide] | 0.19 |
| NC[C@@H]1CCCCN1C(=O)c1cc(Cl)nc(-c2cnn3ccc(-c4cccs4)nc23)c1 [Example 113, (S)-(2-(aminomethyl)piperidin-1-yl)(2-chloro-6-(5-(thiophen-2-yl)pyrazolo[1,5-a]pyrimidin-3-yl)pyridin-4-yl)methanone] | 41.9 |
| CCN(CCN)C(=O)c1ccnc(-c2cnn3ccc(-c4ccccc4)nc23)c1 [Example 65, N-(2-aminoethyl)-N-ethyl-2-(5-phenylpyrazolo[1,5-a]pyrimidin-3-yl)isonicotinamide] | 12.6 |
| CN(C)c1cc(C(=O)N2CC[C@H](N)C2)cc(-c2cnn3ccc(-c4ccccc4)nc23)n1 [Example 125, (S)-(3-aminopyrrolidin-1-yl)(2-(dimethylamino)-6-(5-phenylpyrazolo[1,5-a]pyrimidin-3-yl)pyridin-4-yl)methanone] | 267 |
| CCN(CC)[C@@H](C)CNC(=O)c1cc(-c2cnn3ccc(-c4cccs4)nc23)nc(N2CC(S(C)(=O)=O)C2)c1 [Example 149, (S)—N-(2-(diethylamino)propyl)-2-(3-(methylsulfonyl)azetidin-1-yl)-6-(5-(thiophen-2-yl)pyrazolo[1,5-a]pyrimidin-3-yl)isonicotinamide] | 0.14 |
| C[C@@H](CNC(=O)c1ccnc(-c2cnn3ccc(-c4cccs4)nc23)c1)NCC(F)(F)F [Example 28, (S)-2-(5-(thiophen-2-yl)pyrazolo[1,5-a]pyrimidin-3-yl)-N-(2-((2,2,2-trifluoroethyl)amino)propyl)isonicotinamide] | 53.4 |
| CCN[C@H](CNC(=O)c1ccnc(-c2cnn3ccc(-c4ccccc4)nc23)c1)COc1ncccn1 [Example 69, (R)—N-(2-(ethylamino)-3-(pyrimidin-2-yloxy)propyl)-2-(5-phenylpyrazolo[1,5-a]pyrimidin-3-yl)isonicotinamide] | 91.1 |
| COC1CN(c2cc(C(=O)NCC3(N)CCC3)cc(-c3cnn4ccc(-c5cccs5)nc34)n2)C1 [Example 170, N-((1-aminocyclobutyl)methyl)-2-(3-methoxyazetidin-1-yl)-6-(5-(thiophen-2-yl)pyrazolo[1,5-a]pyrimidin-3-yl)isonicotinamide] | 19.9 |
| CCN(CC)[C@@H](C)CNC(=O)c1cc(-c2cnn3ccc(-c4cccs4)nc23)nc(N2CC(C)(C)C2)c1 [Example 152, (S)—N-(2-(diethylamino)propyl)-2-(3,3-dimethylazetidin-1-yl)-6-(5-(thiophen-2-yl)pyrazolo[1,5-a]pyrimidin-3-yl)isonicotinamide] | 0.59 |
| CN(C)CCNC(=O)c1ccnc(-c2cnn3ccc(-c4ccccc4)nc23)c1 [Example 39, N-(2-(dimethylamino)ethyl)-2-(5-phenylpyrazolo[1,5-a]pyrimidin-3-yl)isonicotinamide] | 137 |
| NC[C@H]1CCCN1C(=O)c1ccnc(-c2cnn3ccc(-c4cccs4)nc23)c1 [Example 79, (R)-(2-(aminomethyl)pyrrolidin-1-yl)(2-(5-(thiophen-2-yl)pyrazolo[1,5-a]pyrimidin-3-yl)pyridin-4-yl)methanone] | 2.85 |
| CCN(CC)[C@@H](C)CNC(=O)c1cc(NCC2(C)COC2)nc(-c2cnn3ccc(-c4cccs4)nc23)c1 [Example 191, (S)—N-(2-(diethylamino)propyl)-2-(((3-methyloxetan-3-yl)methyl)amino)-6-(5-(thiophen-2-yl)pyrazolo[1,5-a]pyrimidin-3-yl)isonicotinamide] | 0.2 |
| CCN(CC)[C@@H](C)CNC(=O)c1cc(-c2cnn3ccc(-c4cccs4)nc23)nc(N2CCC23COC3)c1 [Example 234, (S)—N-(2-(diethylamino)propyl)-2-(6-oxa-1-azaspiro[3.3]heptan-1-yl)-6-(5-(thiophen-2-yl)pyrazolo[1,5-a]pyrimidin-3-yl)isonicotinamide] | 1.28 |
| CCN(CC(F)F)[C@@H](C)CNC(=O)c1ccnc(-c2cnn3ccc(-c4cccs4)nc23)c1 [Example 15, (S)—N-(2-((2,2-difluoroethyl)(ethyl)amino)propyl)-2-(5-(thiophen-2-yl)pyrazolo[1,5-a]pyrimidin-3-yl)isonicotinamide] | 8.34 |
| O=C(c1ccnc(-c2cnn3ccc(-c4cccs4)nc23)c1)N1CC2CNC(COC2)C1 (stereo not shown) [Example 81] | 7.33 |
| CCN[C@@H](C)CNC(=O)c1cc(-c2cnn3ccc(-c4ccccc4)nc23)nc(C(C)C)c1 [Example 122, (S)—N-(2-(ethylamino)propyl)-2-isopropyl-6-(5-phenylpyrazolo[1,5-a]pyrimidin-3-yl)isonicotinamide] | 4.61 |
| CCN(CC)[C@@H](C)CNC(=O)c1cc(NS(=O)(=O)C2CC2)nc(-c2cnn3ccc(-c4cccs4)nc23)c1 [Example 180, (S)-2-(cyclopropanesulfonamido)-N-(2-(diethylamino)propyl)-6-(5-(thiophen-2-yl)pyrazolo[1,5-a]pyrimidin-3-yl)isonicotinamide] | 0.47 |

Further lines, results first:

| IC50 [nM] | Structure (SMILES) |
| --- | --- |
| 284 | COC1CN(c2cc(C(=O)NC[C@@H]3CCCN3C)cc(-c3cnn4ccc(-c5cccs5)nc34)n2)C1 [Example 257, (S)-2-(3-methoxyazetidin-1-yl)-N-((1-methylpyrrolidin-2-yl)methyl)-6-(5-(thiophen-2-yl)pyrazolo[1,5-a]pyrimidin-3-yl)isonicotinamide] |
| 0.46 | CCN(CC)[C@@H](C)CNC(=O)c1cc(-c2cnn3ccc(-c4cccs4)nc23)nc(N2CCC(OC)CC2)c1 [Example 247, (S)—N-(2-(diethylamino)propyl)-2-(4-methoxypiperidin-1-yl)-6-(5-(thiophen-2-yl)pyrazolo[1,5-a]pyrimidin-3-yl)isonicotinamide] |
| 0.27 | CCN(CC)[C@@H](C)CNC(=O)c1cc(-c2cnn3ccc(-c4ccns4)nc23)nc(N2CC[C@H]2C(=O)NC)c1 [Example 307, N—((S)-2-(diethylamino)propyl)-2-(5-(isothiazol-5-yl)pyrazolo[1,5-a]pyrimidin-3-yl)-6-((S)-2-(methylcarbamoyl)azetidin-1-yl)isonicotinamide] |
| 3.02 | CCN(CC)[C@@H](C)CNC(=O)c1cc(-c2cnn3ccc(-c4cccs4)nc23)nc(N2CCC[C@H]2C(=O)NC)c1 [Example 319, N—((S)-2-(diethylamino)propyl)-2-((S)-2-(methylcarbamoyl)pyrrolidin-1-yl)-6-(5-(thiophen-2-yl)pyrazolo[1,5-a]pyrimidin-3-yl)isonicotinamide] |
| 0.1 | CCN(CC)[C@@H](C)CNC(=O)c1cc(OCC(C)(C)O)nc(-c2cnn3ccc(-c4cccs4)nc23)c1 [Example 353, (S)—N-(2-(diethylamino)propyl)-2-(2-hydroxy-2-methylpropoxy)-6-(5-(thiophen-2-yl)pyrazolo[1,5-a]pyrimidin-3-yl)isonicotinamide] |
| 0.52 | CCN(CC)[C@@H](C)CNC(=O)c1cncc(-c2cnn3ccc(-c4cccs4)nc23)c1 [Example 362, (S)—N-(2-(diethylamino)propyl)-5-(5-(thiophen-2-yl)pyrazolo[1,5-a]pyrimidin-3-yl)nicotinamide] |
| 0.28 | CCN(CC)[C@@H](C)CNC(=O)c1cc(-c2cnn3ccc(-c4cccs4)nc23)nc(N2CC[C@@H]2CO)c1 [Example 267, N—((S)-2-(diethylamino)propyl)-2-((R)-2-(hydroxymethyl)azetidin-1-yl)-6-(5-(thiophen-2-yl)pyrazolo[1,5-a]pyrimidin-3-yl)isonicotinamide] |
| 0.46 | CCN(CC)[C@@H](CO)CNC(=O)c1cc(-c2cnn3ccc(-c4cccs4)nc23)nc(N2CC[C@H]2C(=O)NC)c1 [Example 358, N—((R)-2-(diethylamino)-3-hydroxypropyl)-2-((S)-2-(methylcarbamoyl)azetidin-1-yl)-6-(5-(thiophen-2-yl)pyrazolo[1,5-a]pyrimidin-3-yl)isonicotinamide] |
| 0.14 | CCN(CC)[C@@H](C)CNC(=O)c1cc(-c2cnn3ccc(-c4cccs4)nc23)nc(N2CCC[C@@H]2CO)c1 [Example 272, N—((S)-2-(diethylamino)propyl)-2-((R)-2-(hydroxymethyl)pyrrolidin-1-yl)-6-(5-(thiophen-2-yl)pyrazolo[1,5-a]pyrimidin-3-yl)isonicotinamide] |
| 715 | CCN(CC)[C@@H](C)CNC(=O)c1cccc(-c2cnn3ccc(-c4cccs4)nc23)n1 [Example 364, (S)—N-(2-(diethylamino)propyl)-6-(5-(thiophen-2-yl)pyrazolo[1,5-a]pyrimidin-3-yl)picolinamide] |
